Results: EP3808411A1, “COSMETIC COMPOSITIONS AND USE THEREOF” (Mesoestetic Pharma Group, S.L., priority 2019, dated 2020)
“Also recorded” adds a separate entry of the source.

Tests used:
human dermal fibroblasts = assay: β-galactosidase staining in a model of UVB-induced senescence; format: cell-based
Experimental: (§1) In order to verify the action of the shikimic acid as a protector against the process of cellular senescence induced by Ultraviolet Type-B (UVB) damage, the shikimic acid was tested in a model of UVB-induced senescence in human dermal fibroblasts. In this model, two days after being plated, the cells are irradiated with UVB. After three days, the cells are re-irradiated with UVB. Two days after the second irradiation, the cells are processed for analysis. The shikimic acid is incubated with the cells from 24 h before the first irradiation until the day they are analysed. To assess whether cells are senescent or not, two markers are used. On the one hand, β-galactosidase staining is carried out, which stains the senescent cells blue, since they have an abnormal lysosomal activity at pH 6. Furthermore, the expression of the HAS2 gene is quantified by means of the qPCR technique.

HAS2 gene = HAS2 gene expression by qPCR in a model of UVB-induced senescence; format: cell-based, human
Experimental: as §1

## N#CC(=Cc1ccc(-c2cc(Cl)ccc2Cl)o1)C(=O)Nc1cccc2ncccc12 [AGK2]
Human dermal fibroblasts; UVB-irradiated cells, 10, 25, 50 mM shikimic acid + AGK2 2 µM, Figures 5 and 6
  effect of inhibitor on the protective role of shikimic acid on senescence: do not reverse the protective effect of shikimic acid on senescence

## NC(=O)C1CCCc2c1[nH]c1ccc(Cl)cc21 (centres unmarked) [EX-527]
Human dermal fibroblasts; UVB-irradiated cells, 10, 25, 50 mM shikimic acid + EX-527 1 µM, Figure 3
  effect of inhibitor on the protective role of shikimic acid on senescence (β-galactosidase staining): capable of reversing the effect of shikimic acid on senescence
HAS2 gene; UVB-irradiated cells, shikimic acid (SX) + EX-527 1 µM versus SX only, Figure 4
  HAS2 gene expression with shikimic acid + inhibitor: reversed to a lesser extent

## O=C(Nc1ccc(O)c(C(=O)O)c1)c1cccc(NC(=O)c2ccco2)c1 [OSS128167]
Human dermal fibroblasts; UVB-irradiated cells, 10, 25, 50 mM shikimic acid + OSS128167 200 µM, Figures 7 and 8
  effect of inhibitor on the protective role of shikimic acid on senescence: do not reverse the protective effect of shikimic acid on senescence

## COC1=C(OC)C(=O)C(CCCCCCCCCCO)=C(C)C1=O [idebenone]
Human dermal fibroblasts; UVB-irradiated cells treated with 2.5, 5, 10 µM idebenone, Figure 9
  protection against UVB damage-induced senescence (β-galactosidase staining): neither of these two comparative compounds is capable of protecting against UVB damage-induced senescence

## O=C(O)CCCCC1CCSS1 (centres unmarked) [lipoic acid]
Human dermal fibroblasts; UVB-irradiated cells treated with 50, 100, 200 µM lipoic acid, Figure 10
  protection against UVB damage-induced senescence (β-galactosidase staining): neither of these two comparative compounds is capable of protecting against UVB damage-induced senescence

## O=C(O)C1=CC(O)C(O)C(O)C1 (centres unmarked) [shikimic acid, 3,4,5-trihydroxy-1-cyclohexene-1-carboxylic acid]
Human dermal fibroblasts; UVB-irradiated human dermal fibroblasts treated with 10, 25, 50 mM shikimic acid, Figure 1
  senescent cells (β-galactosidase staining): this increase in senescence does not occur; also recorded: more effective than other compounds such as idebenone or lipoic acid
HAS2 gene; UVB-irradiated human dermal fibroblasts treated with 10, 25, 50 mM shikimic acid, Figure 2
  HAS2 gene expression: this decrease is reversed in gene expression
